Results from patent US10472610B2, “Method for generating pancreatic bud cells and therapeutic agent for pancreatic disease containing pancreatic bud cells” (Kyoto University, priority 2014, dated 2019).

What was measured:
iPS cell line 585A1 [1] = assay: Modified adherent culture protocol, additives during Stage 3, flow cytometer or image analyzer; type: cell-based, human; details: for ratio of NKX6.1^+ cells / ratio of PDX1^+NKX6.1^+ cells: compound in Stage 3 medium, modified protocol, 4 days
Procedure: Cells of iPS cell line 585A1 were seeded on a Matrigel coated 24 well plate at a density of 2.0×10^5 cells/well, and the cells were cultured in RPMI 1640 Medium (Nacalai Tesque, Inc.) supplemented with 2% B-27 (Life Technologies), to which 100 ng/ml of activin A (R&D systems), 3 μM of CHIR99021 (Axon Medchem) and 10 μM of Y-27632 (Wako Pure Chemical Industries, Ltd.) were added, for one day. The medium was exchanged with RPMI 1640 Medium containing 100 ng/ml of activin A, 1 μM of CHIR99021 and 2% B-27 (Life Technologies), and the cells were cultured for two days. In addition, the medium was exchanged with RPMI 1640 Medium containing 100 ng/ml of activin A and 2% B-27 (Life Technologies), and the cells were cultured for one day.
The medium was exchanged with Improved MEM Zinc Option (Invitrogen) containing 50 ng/ml of KGF (R&D systems) and 1% B-27 (Life Technologies), and the cells were cultured for 3 or 4 days. Subsequently, the medium was exchanged with Improved MEM Zinc Option containing 50 ng/ml of KGF, 100 ng/ml of Noggin (Peprotech), 10 nM of TTNPB (Santa Cruz Biotechnology), 0.5 μM of 3-Keto-N-aminoethyl-N′-aminocaproyldihydrocinnamoyl Cyclopamine (KAAD-cyclopamine or K-CYC) (Toronto Research Chemicals) and 1% B-27 and the cells were cultured for 2 or 3 days.

iPS cell line 585A1 [2] = assay: Adherent culture protocol, Y-27632 during Stage 3, flow cytometry of PDX1/NKX6.1; type: cell-based, human; details: four days
Procedure: Cells of iPS cell line 585A1 were seeded on a Matrigel coated 24 well plate at a density of 2.0×10^5 cells/well, and cultured in RPMI 1640 Medium (Nacalai Tesque, Inc.) supplemented with 2% B-27 (Life Technologies), 100 ng/ml of activin A (R&D systems), 3 μM of CHIR99021 (Axon Medchem) and 10 μM of Y-27632 (Wako Pure Chemical Industries, Ltd.) for one day. The medium was exchanged with RPMI 1640 Medium containing 100 ng/ml of activin A, 1 μM of CHIR99021 and 2% B-27 (Life Technologies), and the cells were cultured for two days. The medium was then exchanged with RPMI 1640 Medium containing 100 ng/ml of activin A and 2% B-27 (Life Technologies), and the cells were cultured for one day.
The medium of the culture obtained in Stage 1 was exchanged with Improved MEM Zinc Option (Invitrogen) containing 50 ng/ml of KGF (R&D systems) and 1% B-27 (Life Technologies) and the cells were cultured for three days. Subsequently, the medium was exchanged with Improved MEM Zinc Option containing 50 ng/ml of KGF, 100 ng/ml of Noggin (Peprotech), 10 nM of TTNPB (Santa Cruz Biotechnology), 0.5 μM of 3-Keto-N-aminoethyl-N′-aminocaproyldihydrocinnamoyl Cyclopamine (KAAD-cyclopamine or K-CYC) (Toronto Research Chemicals) and 1% B-27, and the cells were cultured for three days.

human ES cell line KhES3 = details: added in Stage 3 on day 2 or after for 1-2 days
Procedure: In the figure, arrows indicate time periods when ALK5 inhibitor II was added to the medium. […] The expressions were measured by a flow cytometer. In the figure, numbers indicate the ratio of PDX1^+ and NKX6.1^+ cells contained in the culture.
The cells obtained in Stage 2 were dissociated into single cells with trypsin and seeded on a Low Attachment 96-well plate (Lipidure Coat, NOF) at a density of 3.0×10^3 to 3.0×10^4 cells/well. Improved MEM Zinc Option (15×10^4 cells/ml) containing 100 ng/ml of KGF, 100 ng/ml of Noggin, 50 ng/ml of EGF (R&D systems), 10 μM of Y-27632 and 1% B-27 was added to the plate, and the cells were further cultured for 4 to 20 days. During this time period, the medium was exchanged with fresh medium every 4 days. As a control, cells obtained in Stage 2 were dissociated into single cells with trypsin and seeded on a Matrigel coated 24 well plate (Greiner) at a density of 6.0×10^4 to 4.8×10^5 cells/cm^2 and cultured under adhesive conditions in the same medium for four days. […]
The cells obtained at four days after the start of Stage (S3d4) were treated with BD Cytofix/Cytoperm™ Kit, stained with an anti-PDX1 antibody (R&D systems) and an anti-NKX6.1 antibody (University of Iowa), and the ratio of PDX1^+ cells as well as the ratio of PDX1^+NKX6.1^+ cells were determined by using a flow cytometer.

CN(C)CCOc1cc(-c2cn[nH]c2)ccc1NC(=O)C1COc2ccccc2O1 (centres unmarked) [SR3677]
concentration at which the effect on the ratio of NKX6.1^+ cells was highest (iPS cell line 585A1 [1]; Stage 3, modified protocol): 5 µM
ratio of NKX6.1^+ cells (iPS cell line 585A1 [1]): increased in a concentration-dependent manner

O=S(=O)(c1cccc2cnccc12)N1CCCNCC1 [Fasudil]
concentration at which the effect on the ratio of PDX1^+NKX6.1^+ cells was highest (iPS cell line 585A1 [1]; Stage 3, modified protocol): 50 µM
ratio of PDX1^+NKX6.1^+ cells (iPS cell line 585A1 [1]): increased in a concentration-dependent manner

CCn1c(-c2nonc2N)nc2cnc(Oc3cccc(NC(=O)c4ccc(OCCN5CCOCC5)cc4)c3)cc21 [GSK269962]
concentration at which the effect on the ratio of NKX6.1^+ cells was highest (iPS cell line 585A1 [1]; Stage 3, modified protocol): 1 µM
ratio of NKX6.1^+ cells (iPS cell line 585A1 [1]): increased in a concentration-dependent manner

C[C@@H](N)[C@H]1CC[C@H](C(=O)Nc2ccncc2)CC1 [Y-27632]
concentration at which the effect on the ratio of PDX1^+NKX6.1^+ cells was highest (iPS cell line 585A1 [2]; Stage 3, adherent culture): 100 µM
ratio of PDX1^+NKX6.1^+ cells (iPS cell line 585A1 [2]; compound in Stage 3 medium, adherent culture): increased in a concentration-dependent manner

Cc1cccc(-c2n[nH]cc2-c2ccc3ncccc3n2)n1 [ALK5 inhibitor II, 2-[3-[6-methylpyridin-2-yl]-1H-pyrazol-4-yl]-1,5-naphthyridine]
ratio of PDX1^+NKX6.1^+ cells (human ES cell line KhES3): increased

Cc1cncc2cccc(S(=O)(=O)N3CCCNC[C@@H]3C)c12 [H-1152]
concentration at which the effect on the ratio of NKX6.1^+ cells was highest (iPS cell line 585A1 [1]; Stage 3, modified protocol): 50 µM
ratio of NKX6.1^+ cells (iPS cell line 585A1 [1]): increased in a concentration-dependent manner

Cc1ccc2c(c1)C(=O)C1(O)CCN(c3ccccc3)C1=N2 (centres unmarked) [Blebbistatin]
concentration from which the ratio of PDX1^+NKX6.1^+ cells increased (iPS cell line 585A1 [1]; Stage 3, modified protocol): 5 µM
concentration up to which the effect on the ratio of PDX1^+NKX6.1^+ cells was high (iPS cell line 585A1 [1]; Stage 3, modified protocol): up to 20 μM
ratio of PDX1^+NKX6.1^+ cells (iPS cell line 585A1 [1]): increased
